{
  "source": "paper PMC5500509",
  "about": "“The prognostic biomarker L-homoarginine is a substrate of the cationic amino acid transporters CAT1, CAT2A and CAT2B” (Scientific Reports, 2017)",
  "key": {"human CAT2A (SLC7A2A) [1]": {"molecular_target": "T1, human CAT2A (SLC7A2A) (Homo sapiens, UniProt P52569)", "T1 construct": "expressed in transfected cells", "T1 sequence (P52569 1-697 isoform P52569-2)": "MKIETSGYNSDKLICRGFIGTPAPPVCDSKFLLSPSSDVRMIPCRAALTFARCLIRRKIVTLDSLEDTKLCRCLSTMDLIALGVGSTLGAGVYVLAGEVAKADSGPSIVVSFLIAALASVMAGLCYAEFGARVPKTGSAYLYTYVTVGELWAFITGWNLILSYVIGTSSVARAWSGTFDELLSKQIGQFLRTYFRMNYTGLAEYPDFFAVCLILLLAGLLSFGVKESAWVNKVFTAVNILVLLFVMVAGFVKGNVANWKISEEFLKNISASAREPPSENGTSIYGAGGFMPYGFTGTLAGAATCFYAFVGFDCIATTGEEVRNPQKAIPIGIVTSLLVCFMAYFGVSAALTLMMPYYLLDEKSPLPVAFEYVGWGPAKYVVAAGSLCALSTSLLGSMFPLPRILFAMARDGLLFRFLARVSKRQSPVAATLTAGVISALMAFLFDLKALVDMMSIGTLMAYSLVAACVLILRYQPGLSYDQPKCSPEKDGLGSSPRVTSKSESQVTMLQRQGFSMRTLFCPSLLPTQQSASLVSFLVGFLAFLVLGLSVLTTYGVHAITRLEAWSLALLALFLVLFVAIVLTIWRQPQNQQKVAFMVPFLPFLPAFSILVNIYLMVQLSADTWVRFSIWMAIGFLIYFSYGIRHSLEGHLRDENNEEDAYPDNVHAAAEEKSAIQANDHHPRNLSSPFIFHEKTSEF", "experiment": "Inhibition of CAT2A-mediated substrate uptake in HEK CAT2A cells", "format": "cell-based", "conditions": "for inhibition of CAT2A-mediated transport of L-homoarginine: substrate L-homoarginine 100 µmol/l, inhibitor 1-10000 µmol/l, IC50 not calculable", "protocol": "Cell lines and basic cell culture conditions have previously been described, [24]. The original choice of human embryonic kidney cells (HEK293) cells for transfection with CAT1-, CAT2A- or CAT2B- was based on their reliable growth and well established propensity for transfection and cellular uptake experiments. In brief, uptake assays were performed using [^3H]-labeled substrate and human embryonic kidney (HEK293) cells stably overexpressing the empty vector only (HEK VCG418 and HEK VChygro, depending on selection conditions) or human CAT1 (HEK CAT1, gene: SLC7A1, NM_003045.4), CAT2A (HEK CAT2A, gene: SLC7A2A, NM_003046.5) or CAT2B (HEK CAT2B, SLC7A2B, NM_001008539.3). The cells were cultured in minimal essential medium containing 10% heat-inactivated fetal bovine serum, 100 U/l penicillin, 100 μg/ml streptomycin, and either G418 (800 µg/ml) or hygromycin B (260 µg/ml) at 37 °C and 5% CO2 with subculture as required. Trypsin (0.05%)-EDTA (0.02%) solution was used to detach cells. […]\nThe transport assays were performed as previously described with minor modifications, [24]. […] In order to identify the period of linear L-homoarginine uptake time dependence was assessed. […]\n(§1) After cooling to 0 °C the cells were washed three times with ice-cold transport buffer and lysed with 0.2% SDS. The intracellular accumulation of radioactivity was determined by liquid scintillation counting (TriCarb 2800; PerkinElmer Life and Analytical Sciences, Inc.) after adding 4 ml of scintillation solution (Ultima Gold XR; PerkinElmer Life and Analytical Sciences, Inc., Rodgau-Jügesheim, Germany). […]\n(§2) Statistical analysis was performed using GraphPad Prism 5 (version 5.01, 2007, GraphPad Software, San Diego, CA, USA). Net transport data were calculated as the difference of uptake from cells transfected with the respective CAT transporter and the corresponding empty control vector. […] KM-values for the uptake transport were calculated using Michaelis–Menten enzyme kinetics. The corresponding IC50 values for inhibition were calculated by fitting the data to a sigmoid dose–response regression curve. […]"}, "human CAT2B (SLC7A2B) [2]": {"molecular_target": "T2, human CAT2B (SLC7A2B) (Homo sapiens, UniProt P52569)", "T2 construct": "expressed in transfected cells", "T2 sequence (P52569 whole entry)": "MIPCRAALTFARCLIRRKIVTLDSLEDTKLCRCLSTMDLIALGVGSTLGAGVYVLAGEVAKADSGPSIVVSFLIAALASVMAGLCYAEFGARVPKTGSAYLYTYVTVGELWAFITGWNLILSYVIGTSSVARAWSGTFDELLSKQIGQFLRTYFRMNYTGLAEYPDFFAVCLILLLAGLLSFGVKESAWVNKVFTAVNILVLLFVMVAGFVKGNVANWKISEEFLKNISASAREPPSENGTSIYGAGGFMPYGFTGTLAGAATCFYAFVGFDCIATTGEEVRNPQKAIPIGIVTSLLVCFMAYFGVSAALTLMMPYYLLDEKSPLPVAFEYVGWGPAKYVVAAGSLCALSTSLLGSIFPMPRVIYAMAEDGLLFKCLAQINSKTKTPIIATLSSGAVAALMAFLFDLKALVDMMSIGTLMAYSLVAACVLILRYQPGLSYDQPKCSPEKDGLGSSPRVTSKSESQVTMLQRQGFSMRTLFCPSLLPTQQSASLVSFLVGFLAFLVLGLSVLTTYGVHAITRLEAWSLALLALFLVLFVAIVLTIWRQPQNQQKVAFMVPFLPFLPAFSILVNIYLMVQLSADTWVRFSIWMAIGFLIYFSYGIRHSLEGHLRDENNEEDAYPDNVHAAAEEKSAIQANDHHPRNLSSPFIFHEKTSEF", "experiment": "Inhibition of CAT2B-mediated substrate uptake in HEK CAT2B cells", "format": "cell-based", "protocol": "(§3) Cell lines and basic cell culture conditions have previously been described, [24]. The original choice of human embryonic kidney cells (HEK293) cells for transfection with CAT1-, CAT2A- or CAT2B- was based on their reliable growth and well established propensity for transfection and cellular uptake experiments. In brief, uptake assays were performed using [^3H]-labeled substrate and human embryonic kidney (HEK293) cells stably overexpressing the empty vector only (HEK VCG418 and HEK VChygro, depending on selection conditions) or human CAT1 (HEK CAT1, gene: SLC7A1, NM_003045.4), CAT2A (HEK CAT2A, gene: SLC7A2A, NM_003046.5) or CAT2B (HEK CAT2B, SLC7A2B, NM_001008539.3). The cells were cultured in minimal essential medium containing 10% heat-inactivated fetal bovine serum, 100 U/l penicillin, 100 μg/ml streptomycin, and either G418 (800 µg/ml) or hygromycin B (260 µg/ml) at 37 °C and 5% CO2 with subculture as required. Trypsin (0.05%)-EDTA (0.02%) solution was used to detach cells. All cell culture media supplements were obtained from Invitrogen GmbH (Karlsruhe, Germany).\n(§4) The transport assays were performed as previously described with minor modifications, [24]. Cells were seeded into poly-D-lysine-coated 12-well plates. Sodium butyrate (10 mmol/l) was added after 24 h of culture for 24 h to enhance CAT1, CAT2A or CAT2B protein expression. […] In order to identify the period of linear L-homoarginine uptake time dependence was assessed. Cells were incubated with the transport buffer containing 100 μmol/L L-homoarginine at 37 °C for 1, 2.5, 5, 10 and 30 min. For determination of kinetic parameters of CAT-mediated L-homoarginine transport increasing L-homoarginine concentrations and an incubation time of 2.5 min were used.\nas §1, with “Germany). A bicinchoninic acid assay was used to assess the protein concentrations.” for “Germany).”\nas §2"}, "human CAT1 (SLC7A1) [3]": {"molecular_target": "T3, human CAT1 (SLC7A1) (Homo sapiens, UniProt P30825)", "T3 construct": "expressed in transfected cells", "T3 sequence (P30825 whole entry)": "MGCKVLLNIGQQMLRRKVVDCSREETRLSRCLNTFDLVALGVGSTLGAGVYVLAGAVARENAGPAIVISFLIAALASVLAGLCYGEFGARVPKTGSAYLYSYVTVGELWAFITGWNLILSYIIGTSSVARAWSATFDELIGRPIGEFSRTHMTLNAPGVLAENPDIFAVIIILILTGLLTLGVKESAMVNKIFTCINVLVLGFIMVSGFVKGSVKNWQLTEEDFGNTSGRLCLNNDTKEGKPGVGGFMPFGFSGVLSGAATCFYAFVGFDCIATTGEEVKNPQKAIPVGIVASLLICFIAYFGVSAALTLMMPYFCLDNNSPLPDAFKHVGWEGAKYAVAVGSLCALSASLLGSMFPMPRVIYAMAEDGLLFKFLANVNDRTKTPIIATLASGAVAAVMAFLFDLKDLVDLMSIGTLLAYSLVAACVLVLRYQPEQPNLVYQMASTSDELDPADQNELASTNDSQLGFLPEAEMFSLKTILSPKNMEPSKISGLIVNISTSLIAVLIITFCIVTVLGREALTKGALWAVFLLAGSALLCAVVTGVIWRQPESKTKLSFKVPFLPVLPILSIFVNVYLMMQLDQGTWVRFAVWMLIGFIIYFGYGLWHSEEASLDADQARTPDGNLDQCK", "experiment": "Inhibition of CAT1-mediated substrate uptake in HEK CAT1 cells", "format": "cell-based", "protocol": "as §3, §4\nas §1, with “Germany). A bicinchoninic acid assay was used to assess the protein concentrations.” for “Germany).”\nas §2"}, "human CAT2A (SLC7A2A) [4]": {"molecular_target": "T1, human CAT2A (SLC7A2A)", "experiment": "CAT2A-mediated uptake of [3H]-L-homoarginine in HEK293 cells overexpressing CAT2A", "format": "cell-based", "protocol": "as §3\nas §4, with “For determination of kinetic parameters of CAT-mediated L-homoarginine transport increasing L-homoarginine concentrations and an incubation time of 2.5 min were used.” left out\nas §2"}, "rat hepatocytes": {"system": "rat hepatocytes", "design": "method as in PMID 7068644", "conditions": "read-out: KM for uptake of L-homoarginine by cells; cited from earlier work"}, "[5]": {"design": "method as in PMID 27434056", "conditions": "healthy volunteers, augmented from 2.9 µmol/l; cited from earlier work"}, "human CAT2B (SLC7A2B) [6]": {"molecular_target": "T2, human CAT2B (SLC7A2B)", "experiment": "CAT2B-mediated uptake of [3H]-L-homoarginine in HEK293 cells overexpressing CAT2B", "format": "cell-based", "protocol": "as §3\nas §4, with “For determination of kinetic parameters of CAT-mediated L-homoarginine transport increasing L-homoarginine concentrations and an incubation time of 2.5 min were used.” left out\nas §2"}, "fibroblasts": {"system": "fibroblasts", "design": "method as in PMID 7040384", "conditions": "read-out: KM for uptake of L-homoarginine by cells; cited from earlier work"}, "human CAT1 (SLC7A1) [7]": {"molecular_target": "T3, human CAT1 (SLC7A1)", "experiment": "CAT1-mediated uptake of [3H]-L-homoarginine in HEK293 cells overexpressing CAT1", "format": "cell-based", "protocol": "as §3\nas §4, with “For determination of kinetic parameters of CAT-mediated L-homoarginine transport increasing L-homoarginine concentrations and an incubation time of 2.5 min were used.” left out\nas §2"}, "[8]": {"conditions": "substrate L-homoarginine 100 µmol/l, inhibitor 1-10000 µmol/l, read-out: IC50 for inhibition of CAT2B-mediated uptake of L-homoarginine"}, "[9]": {"conditions": "net uptake, 2.5 min incubation, 37 °C"}},
  "note": "Where two headings read alike, the source gives them in different places.",
  "data": [
    {"smiles": "CN(C)C(N)=NCCC[C@H](N)C(=O)O", "note": "[ADMA, asymmetric dimethylarginine, reference compound]", "values": [
      {"measurement": "inhibition of CAT2A-mediated transport of L-homoarginine", "setting": "human CAT2A (SLC7A2A) [1]", "result": "could only be inhibited by very high (10000 µmol/l) concentrations"},
      {"measurement": "IC50", "setting": "human CAT2B (SLC7A2B) [2]; [8]", "result": 608, "unit": "µM"},
      {"measurement": "IC50", "setting": "human CAT1 (SLC7A1) [3]; substrate L-homoarginine 100 µmol/l, inhibitor 1-10000 µmol/l, read-out: IC50 for inhibition of CAT1-mediated uptake of L-homoarginine", "result": 379, "unit": "µM"}
    ]},
    {"smiles": "N=C(N)NCCC[C@H](N)C(=O)O", "note": "[L-arginine, reference compound]", "values": [
      {"measurement": "inhibition of CAT2A-mediated transport of L-homoarginine", "setting": "human CAT2A (SLC7A2A) [1]", "result": "could only be inhibited by very high (10000 µmol/l) concentrations"},
      {"measurement": "IC50", "setting": "human CAT2B (SLC7A2B) [2]; [8]", "result": 1440, "unit": "µM"},
      {"measurement": "inhibition of CAT1-mediated net uptake of L-homoarginine at physiological concentrations", "setting": "human CAT1 (SLC7A1) [3]; substrate L-homoarginine 2 µmol/l, inhibitor L-arginine 100 µmol/l, p < 0.01", "result": "significantly inhibited"}
    ]},
    {"smiles": "NC(N)=NCCCC[C@H](N)C(=O)O", "note": "[L-homoarginine]", "values": [
      {"measurement": "IC50", "setting": "human CAT2A (SLC7A2A) [1]; substrate ADMA 100 µmol/l, inhibitor 1–100000 µmol/l", "result": 9240, "unit": "µM"},
      {"measurement": "cellular uptake of L-homoarginine vs control cells", "setting": "human CAT2A (SLC7A2A) [4]; L-homoarginine 100 µmol/l, HEK CAT2A vs control cells, p < 0.001", "result": 1.6, "unit": "fold"},
      {"measurement": "saturation of CAT2A-mediated uptake", "setting": "human CAT2A (SLC7A2A) [4]; increasing L-homoarginine concentrations", "result": "could not be reached"},
      {"measurement": "Vmax of CAT2A-mediated uptake", "setting": "human CAT2A (SLC7A2A) [4]; net uptake, 2.5 min, 37 °C, only estimated, limited by maximally attainable L-homoarginine concentration", "result": "> 20 nmol × mg protein^−1 × min^−1"},
      {"measurement": "Km", "setting": "rat hepatocytes", "result": 300, "unit": "µM"},
      {"measurement": "mean plasma concentration after supplementation", "setting": "[5]", "result": 17.3, "unit": "µM"},
      {"measurement": "cellular uptake of L-homoarginine vs control cells", "setting": "human CAT2B (SLC7A2B) [6]; L-homoarginine 100 µmol/l, HEK CAT2B vs control cells, p < 0.001", "result": 2.2, "unit": "fold"},
      {"measurement": "apparent Vmax of CAT2B-mediated uptake", "setting": "human CAT2B (SLC7A2B) [6]; [9]", "result": "11 ± 0.2 nmol × mg protein^−1 × min^−1"},
      {"measurement": "Km", "setting": "human CAT2B (SLC7A2B) [6]; net uptake, 2.5 min incubation, 37 °C, read-out: apparent KM of CAT2B-mediated uptake", "result": "523 ± 35", "unit": "µM"},
      {"measurement": "Km", "setting": "fibroblasts", "result": 40, "unit": "µM"},
      {"measurement": "IC50", "setting": "human CAT2B (SLC7A2B) [2]; read-out: IC50 for inhibition of CAT2B-mediated uptake of L-arginine, substrate L-arginine 1000 µmol/l, inhibitor 1–100000 µmol/l", "result": 1220, "unit": "µM"},
      {"measurement": "IC50", "setting": "human CAT2B (SLC7A2B) [2]; substrate ADMA 100 µmol/l, inhibitor 1–100000 µmol/l, read-out: IC50 for inhibition of CAT2B-mediated uptake of ADMA", "result": 1860, "unit": "µM"},
      {"measurement": "cellular uptake of L-homoarginine vs control cells", "setting": "human CAT1 (SLC7A1) [7]; L-homoarginine 100 µmol/l, HEK CAT1 vs HEK VCG418, p < 0.001", "result": 7, "unit": "fold"},
      {"measurement": "apparent Vmax of CAT1-mediated uptake", "setting": "human CAT1 (SLC7A1) [7]; [9]", "result": "12 ± 0.1 nmol × mg protein^−1 × min^−1"},
      {"measurement": "Km", "setting": "human CAT1 (SLC7A1) [7]; net uptake, 2.5 min incubation, 37 °C, read-out: apparent KM of CAT1-mediated uptake", "result": "175 ± 7", "unit": "µM"},
      {"measurement": "IC50", "setting": "human CAT1 (SLC7A1) [3]; read-out: IC50 for inhibition of CAT1-mediated uptake of L-arginine, substrate L-arginine 1000 µmol/l, inhibitor 1–100000 µmol/l", "result": 1320, "unit": "µM"},
      {"measurement": "IC50", "setting": "human CAT1 (SLC7A1) [3]; substrate ADMA 100 µmol/l, inhibitor 1–100000 µmol/l, read-out: IC50 for inhibition of CAT1-mediated uptake of ADMA", "result": 642, "unit": "µM"}
    ]}
  ]
}
